Experimental data as given in patent US8558028B2, “Compound capable of inhibiting 17-beta hydroxysteriod dehydrogenase” (University of Bath of Claverton Down, priority 2007, dated 2013).

These molecules were tested against T1, human 17β-HSD3 (Homo sapiens, UniProt P37058) (assay: 17β-Hydroxysteroid dehydrogenase Type 3 activity in stably transfected 293-EBNA cells (TLC assay, 3H-androstenedione to testosterone)). Conditions: human 293-EBNA cells stably transfected with 17β-HSD Type 3, mean of at least 2 measurements, typically SD ±5%.
T1 construct: 293-EBNA cells stably transfected with 17β-HSD Type 3; expressed in transfected cells; host or cells: human 293-EBNA cells, stably transfected
T1 sequence (P37058 1-310): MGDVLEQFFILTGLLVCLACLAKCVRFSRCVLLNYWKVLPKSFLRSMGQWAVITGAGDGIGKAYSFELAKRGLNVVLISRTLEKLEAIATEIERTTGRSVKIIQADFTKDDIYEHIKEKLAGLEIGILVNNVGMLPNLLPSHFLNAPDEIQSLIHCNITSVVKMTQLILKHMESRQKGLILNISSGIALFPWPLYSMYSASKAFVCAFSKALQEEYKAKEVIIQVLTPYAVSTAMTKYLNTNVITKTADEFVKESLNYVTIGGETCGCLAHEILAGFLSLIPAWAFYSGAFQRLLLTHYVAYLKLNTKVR
Assay type: cell-based
Method: Assay Protocol-17β-Hydroxysteroid Dehydrogenase Type 3 Activity in the Presence of Regulatory Agents
293-EBNA cells stably transfected with 17β-HSD Type 3 were plated at 50,000 cells/well in 24 well plates in complete growth medium. After 48 hours 2-3 nM ^3H-Androstenedione in assay medium (500 ml DMEM medium with 5 ml 100×L-Glutamine, and 5 ml 7.5% sodium bicarbonate solution) was added with or without test compound at 1.5 ml/well (triplicate), and the cells incubated at 37° C.
Two hours later 1 ml medium was removed from each well and placed in a 125×16 mm glass test tube containing 25 μl of recovery solution (5000 dpm ^14C-Testosterone and 25 μg unlabelled
Testosterone). Ether (4 ml) was added and the tubes vortexed at high speed for 2×30 sec. After the samples had settled into two phases they were snap-frozen in a dry ice/methanol bath. The upper organic phase was decanted into 75×12 mm tubes and evaporated to dryness under an airstream using a sample concentrator (TECHNE) at 40° C. The samples were resuspended in ether (8 drops, then a further 3), spotted onto silica 60 F254 20 cm×20 cm TLC plates, and separated using a 4:1 v/v dichloromethane:ethyl acetate mobile phase.
After drying the plates, the major spots were marked under a UV lamp, cut out, and placed in individual scintillation vials containing 0.5 ml methanol. These were then shaken lightly and allowed to stand for 15 min before adding 10 ml of EcoScint A (scintillation fluid) to each tube along with 0.5 ml assay medium, and counted in a scintillation spectrometer (Beckman) using a program for dual [^3H/^14C] isotopes. The number of cells/well was then counted using a Coulter counter (Beckman).
The inhibitory activity of the test compounds is then assessed by calculating the amount of product formed correcting for crossover between isotope counts, recovery, dilution and non-enzymatic degradation (fmol/hr/million cells) with and without inhibitor, (% inhibition).
Compounds were tested at 10 μM for inhibition of human 17β-HSD3 with typically ˜200,000 to 300,000 human 293-EBNA cells/well.

inhibition at 10 µM	Structure (SMILES)
> 60%	CC(=O)Nc1ccccc1CNc1ccccc1Oc1ccc(Cl)cc1
> 60%	CC(=O)Nc1ccccc1CNc1ccccc1Oc1ccc(OC(F)(F)F)cc1
> 60%	CC(=O)Nc1ccccc1CNc1cc(F)ccc1Oc1ccc(Cl)cc1
> 60%	CC(=O)Nc1cc2c(cc1CNc1ccccc1Oc1ccc(Cl)cc1)OCO2
< 20%	COc1cc(CNc2ccccc2Oc2ccc(Cl)cc2)c(NC(C)=O)cc1OC
< 20%	COc1cc(CNc2ccccc2Oc2ccc(Cl)cc2Cl)c(NC(C)=O)cc1OC
< 20%	CC(=O)Nc1c(CNc2ccccc2Oc2ccc(Cl)cc2)ccc2ccccc12
> 60%	CC(=O)Nc1ccc(C)cc1CNc1ccccc1Oc1ccc(Cl)cc1
> 60%	CC(=O)Nc1ccc(Cl)cc1CNc1ccccc1Oc1ccc(Cl)cc1
20 to 60%	CC(=O)Nc1ccc(Cl)cc1CNc1ccccc1Oc1ccc(Cl)cc1Cl
> 60%	CC(=O)Nc1ccc(Cl)cc1CNc1ccccc1Oc1ccc(OC(F)(F)F)cc1
< 20%	CC(=O)Nc1ccccc1C(=O)Nc1ccccc1Oc1ccc(Cl)cc1
< 20%	O=C(Nc1ccccc1C(=O)Nc1ccccc1Oc1ccc(Cl)cc1)c1ccccc1
> 60%	CC(=O)N(C)c1ccccc1CNc1ccccc1Oc1ccc(Cl)cc1
20 to 60%	CC(=O)N(C)c1ccccc1CN(C)c1ccccc1Oc1ccc(Cl)cc1
< 20%	CC(=O)Nc1ccccc1CN(C)c1ccccc1Oc1ccc(Cl)cc1

inhibition at 10 µM	Structure (SMILES)
< 20%	CC(=O)Nc1ccccc1CN(C(C)=O)c1ccccc1Oc1ccc(Cl)cc1
20 to 60%	CC(=O)Nc1ccc(CNc2ccccc2Oc2ccc(Cl)cc2)cc1
< 20%	CC(=O)Nc1ccc(CNc2ccccc2Oc2ccc(Cl)cc2Cl)cc1
20 to 60%	CC(=O)Nc1cccc(CNc2ccccc2Oc2ccc(Cl)cc2)c1
20 to 60%	CC(=O)N1CCC(Nc2ccccc2CN(C(C)=O)c2ccccc2Oc2ccc(Cl)cc2)CC1
20 to 60%	CC(=O)N1CCC(Nc2ccccc2CNc2ccccc2Oc2ccc(Cl)cc2)CC1
> 60%	CC(=O)N1CCC(C(=O)Nc2ccccc2CNc2ccccc2Oc2ccc(Cl)cc2)CC1
> 60%	CC(=O)N1CCC(C(=O)Nc2cccc(CNc3ccccc3Oc3ccc(Cl)cc3)c2)CC1
20 to 60%	CCNc1ccccc1C(C)Nc1ccccc1Oc1ccc(Cl)cc1 (centres unmarked)
> 60%	CCN(C(C)=O)c1ccccc1C(C)Nc1ccccc1Oc1ccc(Cl)cc1 (centres unmarked)
> 60%	C=CCC(Nc1ccccc1Oc1ccc(Cl)cc1)c1ccccc1NC(C)=O (centres unmarked)
20 to 60%	C=CC[C@@H](Nc1ccccc1Oc1ccc(Cl)cc1)c1ccccc1NC(C)=O
> 60%	C=CC[C@H](Nc1ccccc1Oc1ccc(Cl)cc1)c1ccccc1NC(C)=O
< 20%	CC(=O)Nc1ccccc1C(Cc1ccccc1)Nc1ccccc1Oc1ccc(Cl)cc1 (centres unmarked)
> 60%	CCCC(Nc1ccccc1Oc1ccc(Cl)cc1)c1ccccc1NC(C)=O (centres unmarked)
> 60%	CC(=O)Nc1ccccc1C(C)Nc1ccccc1Oc1ccc(Cl)cc1 (centres unmarked)
